We go through 14 molecules from patent US8722727B2, “Antifungal agents” (Seynix, Inc., priority 2008, dated 2014).

For the test, the target named is T1, glucan synthase (GS) (Candida albicans, UniProt O13428).
T1 construct: Extraction of GS activity from membranes was performed at a protein concentration of 5 mg/mL in extraction buffer; endogenous in cells; host or cells: Candida albicans MY1055 (membrane fraction, detergent extraction, product entrapment)
T1 sequence (O13428 1-1897): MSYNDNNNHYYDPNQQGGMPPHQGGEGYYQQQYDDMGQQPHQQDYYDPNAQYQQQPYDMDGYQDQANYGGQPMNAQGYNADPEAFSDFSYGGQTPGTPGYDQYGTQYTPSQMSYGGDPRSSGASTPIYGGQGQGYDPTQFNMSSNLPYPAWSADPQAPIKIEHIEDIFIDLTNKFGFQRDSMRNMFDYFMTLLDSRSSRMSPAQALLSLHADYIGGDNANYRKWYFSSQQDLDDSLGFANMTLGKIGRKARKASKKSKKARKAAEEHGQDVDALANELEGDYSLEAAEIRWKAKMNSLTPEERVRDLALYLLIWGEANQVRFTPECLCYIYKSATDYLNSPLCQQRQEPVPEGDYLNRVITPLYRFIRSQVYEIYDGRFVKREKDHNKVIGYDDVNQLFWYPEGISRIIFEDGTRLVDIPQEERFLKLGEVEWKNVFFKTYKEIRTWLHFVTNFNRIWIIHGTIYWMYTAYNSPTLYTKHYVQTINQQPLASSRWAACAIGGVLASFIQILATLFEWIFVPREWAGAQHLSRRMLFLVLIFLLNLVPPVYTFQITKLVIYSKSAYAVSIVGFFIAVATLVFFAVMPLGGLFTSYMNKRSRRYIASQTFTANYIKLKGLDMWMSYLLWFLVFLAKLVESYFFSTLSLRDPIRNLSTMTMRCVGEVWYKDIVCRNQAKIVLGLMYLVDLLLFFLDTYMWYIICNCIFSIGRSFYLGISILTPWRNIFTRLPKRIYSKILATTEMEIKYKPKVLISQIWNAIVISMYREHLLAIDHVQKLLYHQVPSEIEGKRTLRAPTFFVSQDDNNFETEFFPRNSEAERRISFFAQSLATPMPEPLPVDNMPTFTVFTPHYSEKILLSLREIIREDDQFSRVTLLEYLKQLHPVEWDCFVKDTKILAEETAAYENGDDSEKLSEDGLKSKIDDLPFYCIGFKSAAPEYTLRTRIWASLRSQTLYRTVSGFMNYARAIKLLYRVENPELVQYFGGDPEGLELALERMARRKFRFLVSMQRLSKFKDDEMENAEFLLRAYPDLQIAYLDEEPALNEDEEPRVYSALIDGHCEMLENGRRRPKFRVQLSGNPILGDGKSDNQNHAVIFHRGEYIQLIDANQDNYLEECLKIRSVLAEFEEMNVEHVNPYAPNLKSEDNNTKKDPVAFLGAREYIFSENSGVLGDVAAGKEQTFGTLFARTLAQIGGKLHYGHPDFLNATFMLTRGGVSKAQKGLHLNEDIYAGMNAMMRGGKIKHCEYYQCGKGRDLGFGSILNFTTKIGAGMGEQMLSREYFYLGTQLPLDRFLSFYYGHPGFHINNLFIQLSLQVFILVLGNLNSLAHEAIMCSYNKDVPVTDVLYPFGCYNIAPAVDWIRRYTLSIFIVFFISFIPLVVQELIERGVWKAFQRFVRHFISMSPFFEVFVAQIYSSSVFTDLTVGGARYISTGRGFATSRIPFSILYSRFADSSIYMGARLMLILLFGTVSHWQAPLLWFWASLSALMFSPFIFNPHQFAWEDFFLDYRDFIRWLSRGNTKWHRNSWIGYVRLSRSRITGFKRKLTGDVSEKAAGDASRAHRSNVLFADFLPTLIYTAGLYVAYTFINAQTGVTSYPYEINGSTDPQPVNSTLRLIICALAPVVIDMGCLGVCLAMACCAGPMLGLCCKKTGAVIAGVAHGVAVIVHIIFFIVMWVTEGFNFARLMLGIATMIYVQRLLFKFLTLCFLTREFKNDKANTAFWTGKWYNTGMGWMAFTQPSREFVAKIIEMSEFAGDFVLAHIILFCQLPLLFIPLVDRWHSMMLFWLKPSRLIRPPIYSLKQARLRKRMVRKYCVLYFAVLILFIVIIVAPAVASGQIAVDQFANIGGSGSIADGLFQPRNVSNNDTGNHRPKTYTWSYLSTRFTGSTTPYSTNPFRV
T1 sequence (O42825 1-195 partner limits assumed): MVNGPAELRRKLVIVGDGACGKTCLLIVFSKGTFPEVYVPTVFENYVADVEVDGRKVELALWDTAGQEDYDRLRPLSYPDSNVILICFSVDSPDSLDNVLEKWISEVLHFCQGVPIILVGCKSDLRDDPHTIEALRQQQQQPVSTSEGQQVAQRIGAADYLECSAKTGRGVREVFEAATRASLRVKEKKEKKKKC
Kind of test: Glucan synthase inhibition (polymerization assay, 96-well). The following applies: glucan synthase prepared from Candida albicans MY1055; 60 min incubation at 22° C.; read-out: Candida Albicans GS IC50 (ng/mL) (converted). In kind it is biochemical. Summed up: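 Partially purified membrane glucan synthase from C. albicans MY1055, 60 min at 22° C with 0.5 mM 3H-UDPG, 25 μM GTP-γ-S, pH 7.5 HEPES, 25 mM KF. TCA-precipitated glucan filtered and scintillation counted; IC50 (ng/mL) from sigmoidal fit of duplicates over 3-fold dilutions.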
For `CC(C)[C@@H](C)[C@@]1(C)CC[C@]2(C)[C@H]3CC[C@@H]4[C@@]5(COC[C@@]4(C)[C@@H](OCC(C)(N)CCO)[C@H](n4nnc(N)n4)C5)C3=CC[C@@]2(C)[C@@H]1C(=O)O` (stereo partly drawn) [Example 122, (1S,4aR,6aS,7R,8R,10aR,10bR,12aR,14R,15R)-15-(2-amino-4-hydroxy-2-methylbutoxy)-14-(5-amino-2H-tetrazol-2-yl)-8-[(1R)-1,2-dimethylpropyl]-1,6,6a,7,8,9,10,10a,10b,11,12,12a-dodecahydro-1,6a,8,10a-tetramethyl-4H-1,4a-propano-2H-phenanthro[1,2-c]pyran-7-carboxylic acid], the IC50 is 16.7 nM. Consider `CC(C)[C@@H](C)[C@@]1(C)CC[C@]2(C)[C@H]3CC[C@@H]4C5(COCC4(C)[C@@H](OCC4CCCN4C)[C@H](n4nnc(N)n4)C5)C3=CC[C@@]2(C)[C@@H]1C(=O)O` (stereo in doubt) [Example 46, (1S,4aR,6aS,7R,8R,10aR,10bR,12aR,14R,15R)-14-(5-amino-2H-tetrazol-2-yl)-8-[(1R)-1,2-dimethylpropyl]-15-[(1-methyl-2-pyrrolidinyl)methoxy]-1,6,6a,7,8,9,10,10a,10b,11,12,12a-dodecahydro-1,6a,8,10a-tetramethyl-4H-1,4a-propano-2H-phenanthro[1,2-c]pyran-7-carboxylic acid], for which the IC50 is 21.4 nM. As for `CC(C)[C@@H](C)[C@@]1(C)CC[C@]2(C)[C@H]3CC[C@@H]4[C@@]5(COC[C@@]4(C)[C@@H](OCC(C)(C)N)[C@H](n4ncnn4)C5)C3=CC[C@@]2(C)[C@@H]1C(=O)O` [Example 1B, (1S,4aR,6aS,7R,8R,10aR,10bR,12aR,14R,15R)-15-(2-amino-2-methylpropoxy)-8-[(1R)-1,2-dimethylpropyl]-14-(2H-tetrazol-2-yl)-1,6,6a,7,8,9,10,10a,10b,11,12,12a-dodecahydro-1,6a,8,10a-tetramethyl-4H-1,4a-propano-2H-phenanthro[1,2-c]pyran-7-carboxylic acid], the figure is 9.81 nM. As for `CC(C)[C@@H](C)[C@@]1(C)CC[C@]2(C)[C@H]3CC[C@@H]4[C@@]5(COC[C@@]4(C)[C@@H](OCCNCCCN(C)C)[C@H](n4nnc(N)n4)C5)C3=CC[C@@]2(C)[C@@H]1C(=O)O` [Example 36, (1S,4aR,6aS,7R,8R,10aR,10bR,12aR,14R,15R)-14-(5-amino-2H-tetrazol-2-yl)-15-[2-[[3-(dimethylamino)propyl]amino]ethoxy]-8-[(1R)-1,2-dimethylpropyl]-1,6,6a,7,8,9,10,10a,10b,11,12,12a-dodecahydro-1,6a,8,10a-tetramethyl-4H-1,4a-propano-2H-phenanthro[1,2-c]pyran-7-carboxylic acid], the figure is 8.77 nM; as for `CC(C)[C@@H](C)[C@@]1(C)CC[C@]2(C)[C@H]3CC[C@@H]4[C@@]5(COC[C@@]4(C)[C@@H](OC[C@](C)(N)C(C)C)[C@H](n4nnc(CO)n4)C5)C3=CC[C@@]2(C)[C@@H]1C(=O)O` [Example 43B, (1S,4aR,6aS,7R,8R,10aR,10bR,12aR,14R,15R)-15-[[(2R)-2-amino-2,3-dimethylbutyl]oxy]-8-[(1R)-1,2-dimethylpropyl]-14-[5-(hydroxymethyl)-2H-tetrazol-2-yl]-1,6,6a,7,8,9,10,10a,10b,11,12,12a-dodecahydro-1,6a,8,10a-tetramethyl-4H-1,4a-propano-2H-phenanthro[1,2-c]pyran-7-carboxylic acid], 85.1 nM. As for `CC(C)[C@@H](C)[C@@]1(C)CC[C@]2(C)[C@H]3CC[C@@H]4[C@@]5(COC[C@@]4(C)[C@@H](OCC(C)(C)N)[C@H](n4nnc(N)n4)C5)C3=CC[C@@]2(C)[C@@H]1C(=O)O` [Example 6, (1S,4aR,6aS,7R,8R,10aR,10bR,12aR,14R,15R)-15-(2-amino-2-methylpropoxy)-14-(5-amino-2H-tetrazol-2-yl)-8-[(1R)-1,2-dimethylpropyl]-1,6,6a,7,8,9,10,10a,10b,11,12,12a-dodecahydro-1,6a,8,10a-tetramethyl-4H-1,4a-propano-2H-phenanthro[1,2-c]pyran-7-carboxylic acid], the figure is 4.79 nM; as for `Cc1nnnn1[C@@H]1C[C@@]23COC[C@](C)([C@@H]2CC[C@H]2C3=CC[C@@]3(C)[C@H](C(=O)O)[C@@](C)([C@H](C)C(C)C)CC[C@]23C)[C@H]1OCCN` [Example 41A, (1S,4aR,6aS,7R,8R,10aR,10bR,12aR,14R,15R)-15-(2-aminoethoxy)-8-[(1R)-1,2-dimethylpropyl]-14-(5-methyl-1H-tetrazol-1-yl)-1,6,6a,7,8,9,10,10a,10b,11,12,12a-dodecahydro-1,6a,8,10a-tetramethyl-4H-1,4a-propano-2H-phenanthro[1,2-c]pyran-7-carboxylic acid], 199 nM; as for `CNC1(CO[C@H]2[C@H](n3nnc(N)n3)C[C@@]34COC[C@]2(C)[C@@H]3CC[C@H]2C4=CC[C@@]3(C)[C@H](C(=O)O)[C@@](C)([C@H](C)C(C)C)CC[C@]23C)CCCCC1` [Example 32, (1S,4aR,6aS,7R,8R,10aR,10bR,12aR,14R,15R)-14-(5-amino-2H-tetrazol-2-yl)-8-[(1R)-1,2-dimethylpropyl]-15-[[1-(methylamino)cyclohexyl]methoxy]-1,6,6a,7,8,9,10,10a,10b,11,12,12a-dodecahydro-1,6a,8,10a-tetramethyl-4H-1,4a-propano-2H-phenanthro[1,2-c]pyran-7-carboxylic acid], 11.7 nM. With `CC(C)[C@@H](C)[C@@]1(C)CC[C@]2(C)[C@H]3CC[C@@H]4[C@@]5(COC[C@@]4(C)[C@@H](OC[C@@](C)(N)C(C)C)[C@H](n4nnc(N)n4)C5)C3=CC[C@@]2(C)[C@@H]1C(N)=O` [Example 51, (1S,4aR,6aS,7R,8R,10aR,10bR,12aR,14R,15R)-15-[[(2S)-2-amino-2,3-dimethylbutyl]oxy]-14-(5-amino-2H-tetrazol-2-yl)-8-[(1 R)-1,2-dimethylpropyl]-1,6,6a,7,8,9,10,10a,10b,11,12,12a-dodecahydro-1,6a,8,10a-tetramethyl-4H-1,4a-propano-2H-phenanthro[1,2-c]pyran-7-carboxamide], the IC50 is 3.06 nM.

On to `CCCCN[C@](C)(CO[C@H]1[C@H](n2nnc(N)n2)C[C@@]23COC[C@]1(C)[C@@H]2CC[C@H]1C3=CC[C@@]2(C)[C@H](C(=O)O)[C@@](C)([C@H](C)C(C)C)CC[C@]12C)C(C)C` [Example 71, (1S,4aR,6aS,7R,8R,10aR,10bR,12aR,14R,15R)-14-(5-amino-2H-tetrazol-2-yl)-15-[[(2S)-2-(butylamino)-2,3-dimethylbutyl]oxy]-8-[(1R)-1,2-dimethylpropyl]-1,6,6a,7,8,9,10,10a,10b,11,12,12a-dodecahydro-1,6a,8,10a-tetramethyl-4H-1,4a-propano-2H-phenanthro[1,2-c]pyran-7-carboxylic acid], for which the IC50 is 12.7 nM. Then `CC[C@H](C)[C@@H](CO[C@H]1[C@H](n2nnc(N)n2)C[C@@]23COC[C@]1(C)[C@@H]2CC[C@H]1C3=CC[C@@]2(C)[C@H](C(=O)O)[C@@](C)([C@H](C)C(C)C)CC[C@]12C)N(C)C` [Example 101, (1S,4aR,6aS,7R,8R,10aR,10bR,12aR,14R,15R)-14-(5-amino-2H-tetrazol-2-yl)-15-[[(2S,3S)-2-(dimethylamino)-3-methylpentyl]oxy]-8-[(1R)-1,2-dimethylpropyl]-1,6,6a,7,8,9,10,10a,10b,11,12,12a-dodecahydro-1,6a,8,10a-tetramethyl-4H-1,4a-propano-2H-phenanthro[1,2-c]pyran-7-carboxylic acid], with 11.7 nM; and `CC(C)[C@@H](C)[C@@]1(C)CC[C@]2(C)[C@H]3CC[C@@H]4[C@@]5(COC[C@@]4(C)[C@@H](OC[C@@H](C(C)C)N(C)C)[C@H](n4nnc(N)n4)C5)C3=CC[C@@]2(C)[C@@H]1C(=O)O` [Example 80, (1S,4aR,6aS,7R,8R,10aR,10bR,12aR,14R,15R)-14-(5-amino-2H-tetrazol-2-yl)-15-[[(2R)-2-(dimethylamino)-3-methylbutyl]oxy]-8-[(1R)-1,2-dimethylpropyl]-1,6,6a,7,8,9,10,10a,10b,11,12,12a-dodecahydro-1,6a,8,10a-tetramethyl-4H-1,4a-propano-2H-phenanthro[1,2-c]pyran-7-carboxylic acid], with 5.98 nM. As for `CC(C)[C@@H](C)[C@@]1(C)CC[C@]2(C)[C@H]3CC[C@@H]4[C@@]5(COC[C@@]4(C)[C@@H](OC[C@H](N)C(C)(C)C)[C@H](n4nnc(N)n4)C5)C3=CC[C@@]2(C)[C@@H]1C(=O)O` [Example 22, (1S,4aR,6aS,7R;8R,10aR,10bR,12aR,14R,15R)-15-[[(2R)-2-amino-3,3-dimethylbutyl]oxy]-14-(5-amino-2H-tetrazol-2-yl)-8-[(1R)-1,2-dimethylpropyl]-1,6,6a,7,8,9,10,10a,10b,11,12,12a-dodecahydro-1,6a,8,10a-tetramethyl-4H-1,4a-propano-2H-phenanthro[1,2-c]pyran-7-carboxylic acid], the IC50 is 6.11 nM.

For the molecule `CC(C)[C@@H](C)[C@@]1(C)CC[C@]2(C)[C@H]3CC[C@@H]4[C@@]5(COC[C@@]4(C)[C@@H](OCC4(N)CCSCC4)[C@H](n4nnc(N)n4)C5)C3=CC[C@@]2(C)[C@@H]1C(=O)O` [Example 30, (1S,4aR,6aS,7R,8R,10aR,10bR,12aR,14R,15R)-15-[(4-aminotetrahydro-2H-thiopyran-4-yl)methoxy]-14-(5-amino-2H-tetrazol-2-yl)-8-[(1R)-1,2-dimethylpropyl]-1,6,6a,7,8,9,10,10a,10b,11,12,12a-dodecahydro-1,6a,8,10a-tetramethyl-4H-1,4a-propano-2H-phenanthro[1,2-c]pyran-7-carboxylic acid], the IC50 is 2.92 nM.
